# Data published in PubChem BioAssay AID743254 (The Scripps Research Institute Molecular Screening Center, 2014).
# Calls of active or inactive are those of the source.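 Rule for the calls: active = half-inhibition concentration IC50 of 10 µM or lower; inactive = IC50 above 10 µM.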
# Molecular target: Disintegrin and metalloproteinase domain-containing protein 10 (Homo sapiens) (UniProt O14672)
# Test: ADAM10 inhibitors, peptide cleavage, dose response, biochemical, QFRET (AID 743254)
# Details: EDANS fluorescence, 3 h
# Sequence of Disintegrin and metalloproteinase domain-containing protein 10 (Homo sapiens) (O14672 214-748 limits assumed): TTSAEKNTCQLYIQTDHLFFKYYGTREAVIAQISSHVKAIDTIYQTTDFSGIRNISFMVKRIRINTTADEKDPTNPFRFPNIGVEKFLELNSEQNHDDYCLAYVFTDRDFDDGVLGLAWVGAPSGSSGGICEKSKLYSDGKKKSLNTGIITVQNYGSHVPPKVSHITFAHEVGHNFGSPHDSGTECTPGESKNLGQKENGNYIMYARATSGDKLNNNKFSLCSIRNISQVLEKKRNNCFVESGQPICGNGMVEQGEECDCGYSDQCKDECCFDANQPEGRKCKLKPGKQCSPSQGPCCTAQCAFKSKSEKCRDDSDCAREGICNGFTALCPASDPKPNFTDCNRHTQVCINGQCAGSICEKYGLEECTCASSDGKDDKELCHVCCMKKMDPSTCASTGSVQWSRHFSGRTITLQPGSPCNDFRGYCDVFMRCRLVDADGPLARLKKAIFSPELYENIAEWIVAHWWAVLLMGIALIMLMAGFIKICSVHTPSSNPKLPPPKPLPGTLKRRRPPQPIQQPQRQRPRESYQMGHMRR
row,IC50,Structure (SMILES)
1,inactive,O=C(OCc1csc(Nc2ccccc2)n1)c1ccc(Cl)cc1
2,inactive,O=C1OCCN1C(=O)[C@H]1[C@H](c2ccc([N+](=O)[O-])cc2)C(c2ccc(F)cc2)=NN1c1ccc(Br)cc1
3,> 69.5 µM (inactive),O=[N+]([O-])c1ccc(-c2nc(-c3cccs3)c(-c3cccs3)[nH]2)cc1
4,9.61 µM,COc1ccc(-c2cn[nH]c2-c2ccc(OCc3ccccc3)cc2O)cc1
5,inactive,O=[N+]([O-])c1ccc(O)c(/C=N/Nc2ccccn2)c1
6,> 69.5 µM (inactive),Oc1ccc(Cl)cc1-c1cc(-c2cccc(Br)c2)n[nH]1
7,> 69.5 µM (inactive),N#Cc1c(Cl)nc(N/N=C/c2ccccc2)c(Cl)c1Cl
8,> 69.5 µM (inactive),Fc1c(F)c(C(F)(F)F)c(F)c(F)c1N/N=C\c1cccs1
9,> 69.5 µM (inactive),O=C(NNC(=O)c1cc(-c2ccccc2)nc2ccccc12)Nc1cccc(Cl)c1
10,> 69.5 µM (inactive),C(=C\c1ccccc1)/C=N/Nc1nc2ccccc2s1
11,inactive,O=[N+]([O-])c1ccc(S(=O)(=O)Nc2ccc(-c3csc(-c4ccccc4)n3)cc2)cc1
12,inactive,O=[N+]([O-])c1cc(S(=O)(=O)Nc2ccccc2)ccc1N1CCN(c2ccccc2)CC1
13,> 69.5 µM (inactive),O=C(Nc1ccc(N2CCCC2)c(S(=O)(=O)Nc2cccc(C(F)(F)F)c2)c1)c1cccs1
14,7.23 µM,COc1ccc(C(Nc2cc(C)ccn2)c2ccc3ccc(C)nc3c2O)cc1 (stereo not given)
15,> 69.5 µM (inactive),COc1ccc(-c2ccc(-c3noc(-c4cccc(OC)c4)n3)c(OC)n2)cc1
16,inactive,Cc1cc(C)c(CSc2ncc(-c3ccc([N+](=O)[O-])cc3)[nH]2)c(C)c1
17,7.43 µM,O=C(Nc1ccc(OCC(F)(F)C(F)F)c(C(F)(F)F)c1)c1ccc(Cl)cc1
18,> 69.5 µM (inactive),COc1ccc(S(=O)(=O)Nc2cc3c4c(oc3c3ccccc23)CC(C)(C)CC4=O)cc1

row,IC50,Structure (SMILES)
1,> 69.5 µM (inactive),O=C(NNC(=O)c1cc(-c2ccc(Cl)cc2)nc2ccccc12)c1csc(N2CCOCC2)n1
2,inactive,CCc1ccc(NC(=O)c2ccc(F)c(S(=O)(=O)NCC3COc4ccccc4O3)c2)cc1 (stereo not given)
3,inactive,CC(=O)c1ccc(N2CCC(c3cc(-c4ccc(Cl)cc4Cl)n[nH]3)CC2)c([N+](=O)[O-])c1
4,inactive,CCOC(=O)c1c(CSc2ccc(C)cc2)oc2ccc(O)cc12
5,8.8 µM,O=[N+]([O-])c1cccnc1N1CCC(c2cc(-c3ccc(Cl)cc3)n[nH]2)CC1
6,5.44 µM,C=C(C)COc1ccc(-c2[nH]ncc2Oc2ccc(OC)cc2)c(O)c1
7,inactive,CCCN(CC(=O)Nc1cc(Cl)cc(Cl)c1)CC(=O)Nc1ccc(F)c(F)c1F
8,inactive,O=C1OCCN1C(=O)[C@H]1[C@H](c2ccc([N+](=O)[O-])cc2)C(c2cccc(Cl)c2)=NN1c1ccc(Br)cc1
9,> 69.5 µM (inactive),O=C1CC(N(CCc2ccccc2)C(=S)Nc2cc(Cl)ccc2Cl)C(=O)N1c1c(Cl)cccc1Cl (stereo not given)
10,inactive,COc1ccc(CCN2C(=O)c3[nH]nc(-c4ccccc4O)c3C2c2cccc(Cl)c2)cc1 (stereo not given)
11,> 69.5 µM (inactive),COc1cc(/C=N/O)cc(Br)c1OCc1ccc(Cl)cc1
12,inactive,Cc1ccc(NS(=O)(=O)c2ccc(Cl)c(NC(=S)NC(=O)C3CCCCC3)c2)cc1Cl
13,> 69.5 µM (inactive),COC(=O)c1ccc(N2CCC(c3cc(-c4ccc(OC)cc4)n[nH]3)CC2)c([N+](=O)[O-])c1
14,> 69.5 µM (inactive),O=C(Nc1cccc(S(=O)(=O)Nc2ccc(Cl)cc2)c1)c1cc2c(s1)CCCC2
15,inactive,O=C(NNc1ccccc1Br)C(O)(c1cccc(C(F)(F)F)c1)c1cccc(C(F)(F)F)c1
16,> 69.5 µM (inactive),Cc1cccc(C)c1OCC(O)Cn1c2ccccc2c2ccccc21 (stereo not given)
17,7.45 µM,C=C(C)COc1ccc(-c2[nH]ncc2Oc2cccc(OC)c2)c(O)c1
